Usually melting point stands for the temperature, or range, at which the solid turns liquid.

Regarding `COc1ccc2c(C(=O)N3CCC[C@H]3C(=O)O)cc3cc4c(cc3c2c1)OCO4`, the melting point fell in the range of 207 to 208 °C.

In the case of `Cc1ccc(Cn2ccc(OCc3ccccc3)cc2=O)cc1`, the melting point is 143 °C.

As to `CCOC(=O)C(Cc1ccc(O)cc1)Oc1ccc(F)cc1` (stereo not drawn), the melting point lay in the range of 80 to 81 °C.

For the compound `O=Cc1c2ccccc2c(OCCO)c2ccccc12`, the melting point lay in the range of 142 to 144 °C.

As to `CN1CC=C(c2c[nH]c3cc(Cl)c(Cl)cc23)CC1`, the melting point lay in the range of 255 to 257 °C.

For `COc1ccccc1Oc1c(N=[N+]=[N-])nc(N2CCOCC2)nc1OCCOCc1ccccc1`, the melting point lay within 146 to 148 °C.

The compound `COCc1cc2c(s1)CCCc1cc(=O)n(-c3ccc(Cl)cc3)nc1-2` yielded a melting point of 135 to 137 °C.

On to `OC1CCOc2ccc(C=Cc3nc4cc(F)ccc4s3)cc21` (stereo not drawn), for which the melting point was 184 to 186 °C.

In the case of `CCN1C=C2C=C(S)N=CN2N1`, the melting point fell in the range of 251 to 254 °C.

`NCCc1cccc(N2C(=O)N(c3ccccc3Br)Cc3cnc(Nc4ccccc4)nc32)c1`: the melting point came out at 130 °C.

Regarding `COc1cc2ncnc(N3CCN(C(=S)NCc4ccc(OC(F)(F)F)cc4)CC3)c2cc1OC`, the melting point was in the range of 131 to 132 °C.

Consider `CON(C(=O)c1cn(C)nc1C(F)F)C(C)Cc1c(Cl)sc(Cl)c1Cl` (stereo not drawn), for which the melting point lay in the range of 70 to 72 °C.

As to `CS(=O)(=O)NCc1ccc2[nH]cc(CC#N)c2c1`, the melting point was 106 to 109 °C.

`NS(=O)(=O)c1ccc(-c2noc(-c3cnn4c(C5CC5)cc(-c5ccc(Cl)cc5)nc34)n2)s1` showed a melting point of 294 °C.

Consider `CC(=O)NCc1ccsc1`, for which the melting point was in the range of 46 to 47 °C.

Take `CCOC(=O)CCc1ccc(NC(=O)c2csc(NC(=O)NCc3ccccc3)n2)cc1`: the melting point worked out at 194 °C.

Compound `CC(C)(C)OC(=O)[C@H](Cc1ccc(O)cc1)NC(=O)C12CC3CC(C(=O)N1Cc1ccccc1)C2C3` (stereo partly drawn) yielded a melting point of 298 to 300 °C.

Consider `Cn1nc2c(N)nc3ccccc3c2c1CCCCCl`, for which the melting point was 188 to 189 °C.

As for `CCOC(=O)C1CC(=O)c2nc(C)n(C)c2C1` (stereo not drawn), the melting point is 148 to 150 °C.

`CSC(C#N)=C1CCN(c2ccc(N3C[C@H](CNC(C)=O)OC3=O)cc2F)CC1` showed a melting point of 205 to 207 °C.

For `Cc1cc(SC(C)C)c(NC(=O)CCCCCCSc2nc3ccccc3[nH]2)c(SC(C)C)n1`, the melting point was in the range of 118 to 121 °C.

Compound `O=c1[nH]c2ccncc2c(=O)o1` came in with a melting point of 180 °C.

`ICCCCCCOc1ccc(C2=C(c3ccccc3)CCCc3cc(OC4CCCCO4)ccc32)cc1` (stereo not drawn) returned a melting point of 108 to 110 °C.

For `COc1ccc(S(=O)(=O)NC(C)c2ccccc2-c2cc(F)ccc2F)cc1` (stereo not drawn), the melting point fell in the range of 143 to 144 °C.

`Cc1nc(-c2cc(Cl)ccc2Cl)n2c1nnc1ccc(-c3cc(Cl)ccc3Cl)cc12` registered a melting point of 190 to 193 °C.

Take `CNC(=O)OCC(F)(F)Cn1nc(C)c(-c2ccc3c(c2)NC(=O)CO3)c1-c1ccc(F)cc1`: the melting point came to 112 °C.

Regarding `CCCC(=O)N[C@H]1CC[C@H](CCN2CCN(c3nccc4c3CCO4)CC2)CC1`, the melting point was determined as 191 °C.

For `COc1ccccc1OCC(O)CCN1CCN(c2ccccc2)CC1` (stereo not drawn), the melting point was in the range of 101 to 102 °C.

In turn, `Nc1c(Br)cc(C2=NNC(=O)CC2)cc1Br` yielded a melting point of 212 to 214 °C.

In turn, `COc1ccc(-c2nnc(C(=O)N3CC(Oc4ccc(CN5CCC(C)(CO)CC5)cc4)C3)o2)cc1` displayed a melting point of 102 °C.

Regarding `O=C(O)c1ccc(COCc2csc3nc(C(=O)NCc4ccc(F)c(C(F)(F)F)c4)[nH]c(=O)c23)cc1`, the melting point was in the range of 258 to 259 °C.

With `O=C1N=C(N2CCCCC2)SC1=Cc1cccc(-c2ccc(O)c(C34CC5CC(CC(C5)C3)C4)c2)c1`, the melting point was 311 to 312 °C.

With `CC(=O)NCCC(=O)NCCNC(=O)OCc1ccccc1`, the melting point fell in the range of 180 to 182 °C.

`CN(C)C(=O)CCC(=O)NC1CCC(CCN2CCN(c3nccc4c3CCO4)CC2)CC1` (stereo not drawn): the melting point came to 188 °C.

As to `COCc1cc(C(O)CNCCCCCCOCCCc2ccccc2)ccc1O` (stereo not drawn), the melting point lay in the range of 68 to 70 °C.

Compound `CCCCN(CCCC)Cc1nnc(-c2ncn3c2CN(C)C(=O)c2ccccc2-3)o1` registered a melting point of 211 to 213 °C.

Compound `CCOC(=O)c1csc(/C=C/c2cccc(NC(=O)Cc3ccccc3C(=O)O)c2)n1` displayed a melting point of 221 to 223 °C.

Compound `CC(C)(C)OC(=O)N[C@@H](Cc1ccc(O)cc1)C(=O)NCC(=O)NCC(=O)Oc1c(Cl)c(Cl)c(Cl)c(Cl)c1Cl` showed a melting point of 186 °C.

Regarding `CCOC(=O)c1[nH]nc(C)c1[N+](=O)[O-]`, the melting point was in the range of 81 to 86 °C.

For `O=C(CCCCl)Nc1ccnn1-c1c(Cl)cc(C(F)(F)F)cc1Cl`, the melting point was in the range of 103 to 104 °C.

In the case of `O=c1cc(CBr)c2cc(O)ccc2o1`, the melting point lay within 198 to 200 °C.

Turning to `CCCCC(Cc1ccc(OCCNC(=O)c2ccc(-c3cc(C)c(OCOC)c(C)c3)cc2)cc1)C(=O)OCC` (stereo not drawn), the melting point was in the range of 70 to 71 °C.

`Nc1nc2c(ncn2C2CCC(CO)O2)c(=O)[nH]1` (stereo not drawn) gave a melting point of over 250 °C.

`c1cn(Cc2ccc3[nH]c(-n4ccnc4)nc3c2)cn1` had a melting point of 226 °C.

Turning to `Cc1cc(COc2cccc3c2CN(C2CCC(=O)NC2=O)C3=O)on1` (stereo not drawn), the melting point lay within 278 to 280 °C.

The compound `Cn1cc(CO)c(=O)c2ccc(F)cc21` registered a melting point of 219 to 222 °C.

Take `COCCOCCOCCOCCNS(=O)(=O)c1ccc(NC=C2C(=O)Nc3ccc4ncsc4c32)cc1`: the melting point fell in the range of 158 to 159 °C.

In turn, `O=C(c1ccc2ccccc2n1)N1CCN=C1Nc1c(Cl)cccc1Cl` had a melting point of 194 to 196 °C.

`Cn1c(CCNC2CCN(Cc3ccccc3)CC2)cc2ccccc21` gave a melting point of 72 to 73 °C.

`COc1cccc(-c2nn(Cc3oc4ccccc4c(=O)c3-c3cccc(F)c3)c3ncnc(N)c23)c1` yielded a melting point of 175 to 178 °C.

As for `CC1(C)CC(C)(O)C2CCC2(C)C1` (stereo not drawn), the melting point fell in the range of 54 to 55 °C.

For the compound `Clc1ccc(-c2nnc(Cl)s2)cc1`, the melting point is 125 to 127 °C.

In turn, `COc1cc(OC)c2c(=O)c3oc4ccc(OC)cc4c3oc2c1` came in with a melting point of 262 to 264 °C.

On to `CCN(CCCc1c[nH]c2ccc(F)cc12)C1COc2c(F)ccc(C(=O)NC)c2C1` (stereo not drawn), for which the melting point was determined as 118 °C.

For the compound `CNc1nc(OC)c(C(=O)O)cc1Br`, the melting point lay within 224 to 225 °C.

`Cc1cccc(C(=O)Nc2ccc(C(=O)N3Cc4ccccc4Cc4ccccc43)cc2)c1C` registered a melting point of 138 to 142 °C.

Regarding `N#Cc1ccc(NC(=S)NCc2ccncc2)cc1`, the melting point was found to be 169 °C.

In turn, `CC1(C)Oc2c(cc(Cl)c3oc(C(=O)O)cc(=O)c23)-c2ccc([N+](=O)[O-])cc21` yielded a melting point of 278 to 279 °C.

Regarding `O=C(CNc1c(C(=O)O)[nH]c2cc(Cl)cc(Cl)c12)c1ccc(Cl)cc1`, the melting point lay within 279 to 283 °C.

Regarding `CC1(C)CCC(Cc2ccc(Cl)cc2)C1(O)COS(C)(=O)=O` (stereo not drawn), the melting point was 113 to 114 °C.

Turning to `NC(=O)CN1CC(OCc2ccccc2)=CC1=O`, the melting point lay within 174 to 176 °C.

The compound `Nc1cc(C=C2OC(=O)c3ccccc32)ccc1Cl` registered a melting point of 148 to 153 °C.

`COc1ccc(C(C)=O)c(OCCCC(=O)O)c1` came in with a melting point of 127 to 129 °C.

Values taken from a melting point compilation (Tetko et al.; mined from patent text by program, amines drawn as free bases though some values may be those of a salt).
